Activity calls are given as the source filed them.
How the values were obtained:
[1] = THP-1 cell cytotoxicity, dose response, cytotoxicity control for non-replicating M. tuberculosis project (AID 489025); format: functional
[2] = Luminescence Cell-Based Dose Response HTS to Identify Activators of Luciferase Translation or Activity in H4 […] Cells. [Related pubchem assays: 1829 (Project Summary), 1814 (Primary HTS)]; format: functional
[3] = Luminescence Cell-Based Dose Confirmation HTS to Identify Activators of 5'UTR Stem-Loop Driven Alpha-Synuclein mRNA Translation in H4 Neuroglioblastoma Cells. [Related pubchem assays: 1829 (Project Summary), 1814 (Primary HTS)]; format: functional
[4] = cells; format: functional
[5] = test system: H4; experiment: Luminescence Cell-Based Dose Response HTS to Identify Activators of 5'UTR Stem-Loop Driven Prion Protein mRNA Translation in H4 Neuroglioblastoma Cells. [Related pubchem assays: 1829 (Project Summary), 1814 (Primary HTS)]; format: functional; details: Homo sapiens
[6] = A Cell Based Secondary Assay To Explore Cytotoxicity of Compounds that Sensitize Mycobacterium Tuberculosis to Beta-Lactam Antibiotics.; format: functional
[7] = molecular target: DNA damage-inducible transcript 3 protein (Mus musculus, UniProt P35639); format: functional, Cricetulus griseus
[8] = Trypanosoma cruzi growth suppression in host cells – NIH3T3 host cells, beta-gal luminescence, confirmation (AID 2044); format: functional, cell-based;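 also: intracellular parasites grown in NIH/3T3 mouse fibroblasts as host cells; luminescent beta-galactosidase reporter signal from transgenic T. cruzi replicating inside host cells; inhibitors lower the luminescence signal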
[9] = NIH3T3 cell viability loss – ATP luminescence, mouse fibroblasts, counter-screen, dose response (AID 2010); format: functional, cell-based;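 also: cells exposed to compound for about 90 hours before reading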
[10] = cells; format: functional, cell-based
[11] = test system: INS1; experiment: INS-1E survival protection against cytokine death – cell-based, luminescence, retest, dose response (AID 449756); format: functional; details: Rattus norvegicus, INS1;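 also: cell death triggered by IL-1 beta plus TNF-alpha plus IFN-gamma mixture; protective hits raise ATP signal compared with cytokine alone wells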
[12] = cells; format: functional, cell-based; remark: listed apart in the source
[13] = molecular target: T1, Bcl-2-related protein A1 (Mus musculus, UniProt Q07440); format: functional;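 also: confirmatory dose–response counterscreen on Bfl-1, used to check hits from a UBC13 polyubiquitin inhibitor campaign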
T1 sequence (Q07440 whole entry): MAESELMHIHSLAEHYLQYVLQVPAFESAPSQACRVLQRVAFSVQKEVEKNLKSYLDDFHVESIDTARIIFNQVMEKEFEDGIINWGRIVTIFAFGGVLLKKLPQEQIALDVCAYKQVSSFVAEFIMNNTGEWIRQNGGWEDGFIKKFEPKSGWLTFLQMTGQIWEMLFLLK

[14] = molecular target: T2, Ubiquitin-conjugating enzyme E2 N (Homo sapiens, UniProt P61088); format: functional;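 also: Dose-response confirmation in a TR-FRET assay detecting UBC13-driven polyubiquitin chain formation, inhibition measured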
T2 sequence (P61088 whole entry): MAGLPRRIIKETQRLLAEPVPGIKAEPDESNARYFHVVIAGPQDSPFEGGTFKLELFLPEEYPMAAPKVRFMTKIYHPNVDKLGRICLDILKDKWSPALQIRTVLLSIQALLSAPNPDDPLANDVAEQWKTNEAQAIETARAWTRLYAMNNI

[15] = molecular target: T3, Rac GTPase-activating protein 1 (Homo sapiens, UniProt Q9H0H5); experiment: blockers of MgcRacGAP-driven Rac1 GTP hydrolysis – biochemical, ADP Hunter fluorescence, primary and confirmatory, confirmation (AID 624330); format: functional
T3 sequence (Q9H0H5 whole entry): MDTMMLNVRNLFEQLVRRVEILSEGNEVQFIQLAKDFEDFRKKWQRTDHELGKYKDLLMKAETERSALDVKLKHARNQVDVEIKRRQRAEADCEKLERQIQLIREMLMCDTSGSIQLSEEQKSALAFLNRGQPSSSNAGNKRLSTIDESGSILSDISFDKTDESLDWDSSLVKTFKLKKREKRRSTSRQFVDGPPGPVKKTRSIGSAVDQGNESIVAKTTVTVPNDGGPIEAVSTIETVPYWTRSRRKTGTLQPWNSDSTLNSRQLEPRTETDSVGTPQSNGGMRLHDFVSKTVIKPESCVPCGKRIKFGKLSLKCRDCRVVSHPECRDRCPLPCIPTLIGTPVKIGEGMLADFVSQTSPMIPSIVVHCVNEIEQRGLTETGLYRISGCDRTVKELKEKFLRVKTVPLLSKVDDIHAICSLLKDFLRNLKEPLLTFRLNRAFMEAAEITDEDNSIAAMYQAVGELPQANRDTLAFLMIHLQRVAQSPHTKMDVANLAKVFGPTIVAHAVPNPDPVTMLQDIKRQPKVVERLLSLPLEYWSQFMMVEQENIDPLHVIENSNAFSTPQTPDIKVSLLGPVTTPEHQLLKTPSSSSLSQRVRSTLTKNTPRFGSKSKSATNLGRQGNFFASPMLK

[16] = molecular target: T4, Microphthalmia-associated transcription factor (Homo sapiens, UniProt O75030); experiment: reducers of TRPM1 reporter luminescence, concentration series – cell-based, SK-MEL-5, cherry-picked, set 3, MITF inhibitor project, dose response (AID 493073); format: functional;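 also: SK-MEL-5 melanoma cells with luciferase driven by the MITF target TRPM1 promoter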
T4 sequence (O75030 whole entry): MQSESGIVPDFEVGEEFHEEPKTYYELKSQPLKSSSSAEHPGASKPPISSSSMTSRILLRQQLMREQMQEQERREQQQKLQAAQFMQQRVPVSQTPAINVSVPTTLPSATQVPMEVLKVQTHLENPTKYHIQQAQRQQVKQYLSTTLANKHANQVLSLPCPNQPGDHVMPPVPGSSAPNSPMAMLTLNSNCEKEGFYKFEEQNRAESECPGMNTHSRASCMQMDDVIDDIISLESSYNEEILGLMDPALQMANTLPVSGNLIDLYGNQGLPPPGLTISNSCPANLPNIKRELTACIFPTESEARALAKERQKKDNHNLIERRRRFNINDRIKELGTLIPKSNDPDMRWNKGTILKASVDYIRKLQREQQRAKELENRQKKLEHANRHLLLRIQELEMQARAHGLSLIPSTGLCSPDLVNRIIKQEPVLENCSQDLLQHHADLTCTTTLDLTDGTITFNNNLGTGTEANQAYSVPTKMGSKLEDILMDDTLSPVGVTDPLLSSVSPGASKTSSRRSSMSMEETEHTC

[17] = test system: Streptococcus sp. 'group A'; experiment: Streptococcus pyogenes SK(-)GAS viability under kanamycin – luminescence, BacTiterGlo, confirmation, counter-screen for streptokinase expression inhibitor project, dose response (AID 1900); format: functional, organism-based
[18] = microbe, parasite or virus in culture; format: functional; details: Mycobacterium tuberculosis
[19] = molecular target: T5, Streptokinase A (Streptococcus pyogenes serotype M1, UniProt P10520); experiment: viability-normalized secreted streptokinase activity reduction – plasminogen activation absorbance, OD405, dose response (AID 1914); format: functional, Streptococcus pyogenes M1 GAS;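 also: secreted streptokinase activity via plasminogen activation per viability signal from cell pellet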
T5 sequence (P10520 whole entry): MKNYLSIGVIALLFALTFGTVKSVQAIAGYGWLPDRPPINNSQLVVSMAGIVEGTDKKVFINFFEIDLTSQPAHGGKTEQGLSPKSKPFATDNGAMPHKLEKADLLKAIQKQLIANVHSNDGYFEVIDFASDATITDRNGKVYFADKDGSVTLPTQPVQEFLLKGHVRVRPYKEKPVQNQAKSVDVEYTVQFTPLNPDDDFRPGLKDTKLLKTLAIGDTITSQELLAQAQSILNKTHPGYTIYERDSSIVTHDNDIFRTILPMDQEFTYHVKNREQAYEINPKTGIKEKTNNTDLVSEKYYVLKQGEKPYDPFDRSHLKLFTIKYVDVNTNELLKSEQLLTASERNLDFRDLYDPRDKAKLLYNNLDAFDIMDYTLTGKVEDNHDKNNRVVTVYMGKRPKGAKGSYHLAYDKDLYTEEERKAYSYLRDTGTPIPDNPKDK

[20] = test system: Streptococcus; experiment: GAS UMAA2166 growth inhibition – luminescence, BacTiterGlo, counter-screen for streptokinase expression inhibitor project, dose response (AID 1915); format: functional, organism-based;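 also: potency for reduction of bacterial viability or growth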

Sequence of DNA damage-inducible transcript 3 protein (P35639 whole entry): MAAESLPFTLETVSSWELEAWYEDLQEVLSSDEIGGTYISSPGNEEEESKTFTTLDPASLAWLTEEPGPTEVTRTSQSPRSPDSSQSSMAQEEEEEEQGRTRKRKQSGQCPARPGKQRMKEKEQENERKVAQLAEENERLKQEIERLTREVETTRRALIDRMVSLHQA

CCc1ccc(N2NC(=O)/C(=C/C=C/c3ccco3)C2=O)cc1
CC50 [1]: > 40 µM (active)
EC50 [2]: 48 µM (active)
EC50 [3]: 14.8 µM (active)
IC50 [4]: 12.1 µM (active)
EC50 [5]: 14.3 µM (active)

CCOC(=O)c1sc2ccccc2c1NC(=O)c1coc2ccccc2c1=O
EC50 [2]: 16.9 µM (active)
EC50 [3]: > 120 µM (not active)
CC50 [6]: > 40 µM (active)
EC50 [5]: > 120 µM (not active)

CCOc1ccc2nc(NC(=O)CSc3nnnn3C3CCCCC3)sc2c1
Absolute IC50 (CHOP) [7]: 10 µM
EC50 [8]: 2.14 µM (active)
EC50 [9]: > 30 µM (not active)

COc1cccc(CN2CCC(N(CCc3ccccc3)Cc3ccccc3)CC2)c1OC
CC50 [1]: > 40 µM (active)
EC50 [10]: > 350 µM (not active)
AC50 [11]: 11.4 µM (active)
IC50 [4]: 25.2 µM (active)
EC50 [12]: > 350 µM (not active)

C#CCOCCOCCOCCNc1nc(N2CCN(C(=O)C([C@@H](C)O)n3cc([C@@H](N)CCCCN)nn3)CC2)nc(N2CCN(C(=O)[C@H](CCCCN)n3cc(CN)nn3)CC2)n1 (stereo not given in full)
IC50 [13]: > 20 µM (inactive)
IC50 [14]: 3.7 µM (active)
IC50 [15]: 171 µM (active)

COc1ccc(NC(C)C(=O)N/N=C/c2ccc([N+](=O)[O-])s2)cc1 (stereo not given)
EC50 [8]: 0.414 µM (active)
CC50 [6]: 21.8 µM (active)
AC50 [16]: 15.8 µM (active)
EC50 [9]: > 60 µM (inconclusive)

Cc1cc(N2CCC(C)CC2)nc(-n2nc(C)cc2C)n1
CC50 [1]: > 40 µM (active)
EC50 [17]: 7.26 µM (active)
IC50 [4]: 0.15 µM (active)
CC50 [18]: > 40 µM (active)
EC50 [19]: > 150 µM (not active)
EC50 [20]: > 150 µM (not active)

From ChEMBL document CHEMBL1201862, “PubChem BioAssay data set” (2004)
